Data on 1 compound can be found in patent US20190269666A1, “COMBINATION THERAPY WITH MERESTINIB AND ANTI-PD-L1 OR ANTI-PD-1 INHIBITORS FOR USE IN THE TREATMENT OF CANCER” (Eli Lilly and Company, priority 2016, published 2019).

The subject of this assay is EMT6 syngeneic mouse mammary carcinoma tumor model. Description: EMT6 syngeneic mouse mammary carcinoma tumor model. The assay is classed as in vivo. From the text: A syngeneic mouse tumor model is used to evaluate potential combination effect of merestinib and anti-PD-L1 antibody in the EMT6 model (Rockwell, S C, Kallman, R F, Fajardo, L F. Characteristics of a serially transplanted mouse mammary tumor and its tissue-culture-adpated derivative. J Nat Cancer Institute. 1972, 49:735-749). Anti-PD-L1 antibody surrogate (178G7, LSN3370181) (Eppihimer et al. Microcirculation 2002:9(2):133) is used in the mouse study.
Female BALB/c mice (18-20 gm) from Envigo (Harlan Laboratories) are used for this study. Food and water are available ad libitum. Animals are acclimated for at least one week prior to any experimental manipulation. The study is performed in accordance with AALAC accredited institutional guidelines.
Merestinib is formulated as a solution in 10% PEG 400 in 90% (20% Captisol in H2O) once weekly. Anti-PD-L1 antibody (LSN3370181) is formulated in PBS (phosphate buffered saline).
EMT6 cells (from internal in vivo pharmacology cell culture group lot EMT6-3184882) are used for implantation. Approximately 5×10^5 cells in HBSS are implanted subcutaneously into the right hind flank of the animal under anesthesia. Prior to commencing drug administration, animals are randomized to treatment groups based on body weight.
There are 4 arms in this study with 15 animals per group: 1) vehicle control; 2) merestinib 12 mg/kg QD×21, PO; 3) LSN3370181 (anti-PD-L1) 0.5 mg/mouse once weekly for 3 weeks via IP; 4) combination merestinib+anti-PD-L1 antibody; combination therapies follow the same dosing schedule as the monotherapies. Treatment is initiated on Day 6 post tumor cell implantation and continued for 21 days (final dose administered on Day 26). Tumor volumes and body weight are measured bi-weekly. Tumor volume is estimated by using the formula: v=l×w^2×0.536 where l=larger of measured diameter and w=smaller of perpendicular diameter. Animals are sacrificed using CO2 and cervical dislocation.
On Day 20 post tumor cell implant, 5 animals from each group are taken down for harvesting of spleens and tumors for mechanism of action (MOA) studies (FACs analysis, gene expression). The remaining animals continue with treatment as described above. At the end of the dosing period (Day 27 post tumor cell implant), animals are observed for tumor growth for 43 days. Animals are removed from study when tumor burden reached or exceeded 2500 mm^3. To assess immune memory, on Day 70 post tumor cell implant, animals that remained on study (complete responders and partial responders) are rechallenged with new implant of EMT6 cells on the contralateral side and observed for tumor growth for 15 days.
Tumor volume is transformed to the log scale to equalize variance across time and treatment groups. The log volume data are analyzed with a two-way repeated measures analysis of variance by time and treatment using the MIXED procedures in SAS software (Version 9.3). The correlation model for the repeated measures is spatial power. Treated groups are compared to the control group at each time point. The MIXED procedure is also used separately for each treatment group to calculate least squares means and standard errors at each time point. Both analyses account for the autocorrelation within each animal and the loss of data that occurs when animals are removed or lost before end of study.
Bayesian ordinal logistic regression analysis is used to obtain the posterior probability of the combination treatment effect for synergy, additivity or antagonism was conducted on Day 69 for this study. Each animal was classified into one of 3 response categories, based on its Day 69 tumor volume and by comparison to the vehicle data: I) Non-responder (NR), II) Partial Responder (PR), III) Complete Responder (CR). CR is defined by tumor volume […] at Day 69. NR is defined as unperturbed exponential growth, similar to vehicle animals. […]

For `Cc1ccc(C(=O)Nc2ccc(Oc3cc4cnn(C)c4cc3-c3cn[nH]c3)c(F)c2)c(=O)n1-c1ccc(F)cc1` [merestinib, N-(3-fluoro-4-(1-methyl-6-(1H-pyrazol-4-yl)-1H-indazol-5-yloxy)phenyl)-1-(4-fluorophenyl)-6-methyl-2-oxo-1,2-dihydropyridine-3-carboxamide], for the setting “Day 31”, the “Regression (%)” value is listed as “No tumor regression” and the “T/C %” value amounted to 35.2%. Further, under “animals of 10/group”, the “Day 69 Treatment Responders NR (Non-responder)” value was found to be 10 and the “Day 69 Treatment Responders PR (Partial Responder)” value is reported as 0. The “Day 69 Treatment Responders CR (Complete Responder)” value (animals of 10/group, tumor volume ≤25 mm^3) came out at 0. Where the note is “mouse, in vivo”, the “single agent anti-tumor activity” value is recorded as “weak single agent anti-tumor activity”.
